Measurements reported in ChEMBL document CHEMBL1201862, “PubChem BioAssay data set” (2004).
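Dose response: 5 concentrations. Exposure: 48 h. Format: 96-well plates. Endpoint: linear interpolation; highest concentration if not reached. GI50 marks 50% less growth.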 Activity calls are given as the source filed them. Cut-off read from the data, not from the text of the source: active = GI50 up to about 1.1 µM and inactive = higher.

Tests used:
Assay in all cases: growth of human tumour cells (NCI), 48 h
CAKI-1 = tested on: CAKI-1
HCT-116 = tested on: HCT-116
RPMI-8226 = tested on: RPMI-8226
IGROV-1 = tested on: IGROV-1
OVCAR-8 = tested on: OVCAR-8
SK-OV-3 = tested on: SK-OV-3
SF-295 = tested on: SF-295
HCT-15 = tested on: HCT-15
HOP-92 = tested on: HOP-92
LOX IMVI = tested on: LOX IMVI
786-0 = tested on: 786-0
TK-10 = tested on: TK-10
SF-268 = tested on: SF-268
OVCAR-5 = tested on: OVCAR-5
RXF 393 = tested on: RXF 393
U-251 = tested on: U-251
SR = tested on: SR

Compound | GI50 (CAKI-1) | GI50 (HCT-116) | GI50 (RPMI-8226) | GI50 (IGROV-1) | GI50 (OVCAR-8) | GI50 (SK-OV-3) | GI50 (SF-295) | GI50 (HCT-15) | GI50 (HOP-92) | GI50 (LOX IMVI) | GI50 (786-0) | GI50 (TK-10) | GI50 (SF-268) | GI50 (OVCAR-5) | GI50 (RXF 393) | GI50 (U-251) | GI50 (SR)
Cc1cccc(C(C)(C)C)c1NC(=O)CCc1nnc(S)[nH]1 | > 100 µM (inactive) | > 100 µM (inactive) | > 100 µM (inactive) | > 100 µM (inactive) | > 100 µM (inactive) | > 100 µM (inactive) | > 100 µM (inactive) | > 100 µM | > 100 µM (inactive) | > 100 µM (inactive) | > 100 µM (inactive) | > 100 µM (inactive) | > 100 µM (inactive) | > 100 µM (inactive) | > 100 µM (inactive) | > 100 µM (inactive) | 
O=c1oc2c(ccc3occc32)c(N2CCCCC2)c1-c1ccccc1 |  | > 100 µM (inactive) |  | > 100 µM (inactive) | > 100 µM (inactive) |  | 97.3 µM (inactive) | > 80 µM | > 73.8 µM (inactive) | > 100 µM (inactive) |  |  | > 100 µM (inactive) | > 100 µM (inactive) | > 64.3 µM (inactive) | > 100 µM (inactive) | 
O=C(CC(=O)n1nc(-c2ccccc2)c(/N=N/c2ccc(Cl)cc2)c1-c1ccccc1)Nc1ccc(Cl)cc1 | > 100 µM (inactive) | > 39.9 µM (inactive) | > 46.3 µM (inactive) | > 100 µM (inactive) | 63.4 µM (inactive) | > 100 µM (inactive) | > 100 µM (inactive) | > 41.7 µM | > 91 µM (inactive) | > 41.5 µM (inactive) | > 43.3 µM (inactive) | > 61.1 µM (inactive) | > 88.7 µM (inactive) | > 100 µM (inactive) |  | > 100 µM (inactive) | > 100 µM (inactive)
C#Cc1c(C)c(/C=C/C(C)=C/C=C/C(C)=C/C(=O)OC)n(C)c1C | > 100 µM (inactive) | > 100 µM (inactive) | > 100 µM (inactive) | > 100 µM (inactive) | > 100 µM (inactive) | 0.428 µM (active) | > 100 µM (inactive) | > 100 µM | > 100 µM (inactive) | > 100 µM (inactive) | > 100 µM (inactive) | > 100 µM (inactive) | > 100 µM (inactive) | > 100 µM (inactive) |  | > 100 µM (inactive) | > 100 µM (inactive)
N#CCCc1nc2ccc(Br)cc2c(=O)n1-c1ccc(O)c([N+](=O)[O-])c1 | 32.9 µM (inactive) |  | 17.3 µM (inactive) | 20.6 µM (inactive) | 26.9 µM (inactive) | 38.5 µM (inactive) | 20.1 µM (inactive) | 18.8 µM | 25.4 µM (inactive) | 19 µM (inactive) | 19.3 µM (inactive) | 34.7 µM (inactive) | 24.1 µM (inactive) | 46.1 µM (inactive) | 18.1 µM (inactive) | > 10 µM (inactive) | 
O=C(O)CCNCCCNCCC(=O)O | > 100 µM (inactive) | > 100 µM (inactive) | > 100 µM (inactive) | > 100 µM (inactive) | > 100 µM (inactive) | > 100 µM (inactive) | > 100 µM (inactive) | > 100 µM | > 100 µM (inactive) | > 100 µM (inactive) | > 100 µM (inactive) | > 100 µM (inactive) | > 100 µM (inactive) | > 100 µM (inactive) | > 100 µM (inactive) | > 100 µM (inactive) | 
Cc1nc2c(o1)/C(=N\c1ccccc1)c1ccccc1/C2=N/c1ccccc1 | > 100 µM (inactive) | 70.8 µM (inactive) | 47 µM (inactive) | > 100 µM (inactive) | > 100 µM (inactive) | > 100 µM (inactive) | > 100 µM (inactive) | 16 µM | 49.2 µM (inactive) | 28.4 µM (inactive) | 45.1 µM (inactive) | > 100 µM (inactive) | > 100 µM (inactive) | > 100 µM (inactive) | > 100 µM (inactive) | 79.3 µM (inactive) | 
C=C1CCC23CC(CC[C@@H]2[C@@]12C[C@@H](c1ccoc1)OC2=O)OC3=O (stereo not given in full) | > 100 µM (inactive) | > 100 µM (inactive) | > 100 µM (inactive) | > 100 µM (inactive) | > 100 µM (inactive) | > 100 µM (inactive) | > 100 µM (inactive) | > 100 µM | > 100 µM (inactive) |  | > 100 µM (inactive) | > 100 µM (inactive) | > 100 µM (inactive) | > 100 µM (inactive) |  | > 100 µM (inactive) | 
O=C(N[C@@H](c1ccccc1)[C@@H](O)C(=O)OCc1ccc2c(c1)OCO2)c1ccccc1 | 1 µM (active) | > 100 µM (inactive) | > 100 µM (inactive) | > 100 µM (inactive) | > 100 µM (inactive) | > 100 µM (inactive) | > 100 µM (inactive) | > 100 µM | > 86.7 µM (inactive) | > 100 µM (inactive) |  |  | > 100 µM (inactive) | > 31.6 µM (inactive) | 52.8 µM (inactive) | > 100 µM (inactive) | 
CCCCCCCCOC(CO)CO | > 100 µM (inactive) | > 100 µM (inactive) | > 100 µM (inactive) | > 100 µM (inactive) | > 100 µM (inactive) | > 100 µM (inactive) | > 100 µM (inactive) | > 100 µM | 44.6 µM (inactive) | > 100 µM (inactive) | > 100 µM (inactive) | > 100 µM (inactive) | > 100 µM (inactive) | > 100 µM (inactive) |  | > 100 µM (inactive) | > 100 µM (inactive)
CC1(c2cc3c(cc2Br)OCO3)SCCCS1 |  | 31.7 µM (inactive) | 27.4 µM (inactive) | > 100 µM (inactive) | 47.5 µM (inactive) | > 100 µM (inactive) | 49.1 µM (inactive) | 38.7 µM | 17.7 µM (inactive) | 40 µM (inactive) | 44.3 µM (inactive) | 33.4 µM (inactive) | 44.6 µM (inactive) | 42.3 µM (inactive) | 18.3 µM (inactive) | 33 µM (inactive) | 
CC(NC1CCCC[C@@H]1O)c1ccccc1 (stereo not given in full) | 55.3 µM (inactive) | > 100 µM (inactive) | > 100 µM (inactive) | > 100 µM (inactive) | > 100 µM (inactive) | > 100 µM (inactive) | > 100 µM (inactive) | > 100 µM | > 100 µM (inactive) | > 100 µM (inactive) | > 100 µM (inactive) | > 100 µM (inactive) |  | > 100 µM (inactive) | > 100 µM (inactive) | > 100 µM (inactive) | 
CCOC(=O)/C=C/c1c[nH]c(=O)[nH]c1=O | > 75 µM (inactive) | > 75 µM (inactive) | > 39.4 µM (inactive) | > 75 µM (inactive) | > 75 µM (inactive) | > 41.5 µM (inactive) | > 75 µM (inactive) | > 75 µM | > 75 µM (inactive) | > 75 µM (inactive) |  |  | > 75 µM (inactive) | > 75 µM (inactive) | > 75 µM (inactive) | > 75 µM (inactive) | 
CCOC(=O)C1=C(C)N(NC(N)=O)C(C)(O)C12CCOC2=O (stereo not given) | > 100 µM (inactive) | > 100 µM (inactive) | > 100 µM (inactive) | > 100 µM (inactive) | > 100 µM (inactive) | > 100 µM (inactive) | > 100 µM (inactive) | > 100 µM |  | > 100 µM (inactive) | > 100 µM (inactive) |  | > 100 µM (inactive) | > 100 µM (inactive) |  | > 100 µM (inactive) | > 100 µM (inactive)
N#CC(C#N)=Cc1ccc(C(O)P(=O)(O)O)cc1 (stereo not given) | > 100 µM (inactive) | > 100 µM (inactive) | > 100 µM (inactive) | > 100 µM (inactive) | > 100 µM (inactive) | > 100 µM (inactive) | > 100 µM (inactive) | > 100 µM | 39.6 µM (inactive) | > 100 µM (inactive) | > 100 µM (inactive) | > 100 µM (inactive) | > 100 µM (inactive) | > 100 µM (inactive) |  | > 100 µM (inactive) | 
CN(C)/N=C(\CCN1CCCC1)CC(c1ccccc1)c1c(O)c2ccccc2oc1=O (stereo not given) | > 100 µM (inactive) | > 100 µM (inactive) | > 100 µM (inactive) | > 100 µM (inactive) |  | > 100 µM (inactive) | > 100 µM (inactive) |  | > 100 µM (inactive) | > 100 µM (inactive) | > 100 µM (inactive) | > 100 µM (inactive) | > 100 µM (inactive) | > 100 µM (inactive) | > 100 µM (inactive) |  | 
CCc1ccccc1NC(=O)CCc1n[nH]c(=S)o1 | > 100 µM (inactive) | 18.5 µM (inactive) | 98.9 µM (inactive) | > 100 µM (inactive) | > 100 µM (inactive) | > 100 µM (inactive) | > 100 µM (inactive) | 19.3 µM | > 100 µM (inactive) |  | > 100 µM (inactive) | > 100 µM (inactive) | > 100 µM (inactive) | > 100 µM (inactive) |  | > 100 µM (inactive) | 
CC1C(=O)CC(c2cccs2)N(N=O)C1c1cccs1 (stereo not given) | > 100 µM (inactive) | 46.2 µM (inactive) | 23.7 µM (inactive) | 98.6 µM (inactive) | > 42 µM (inactive) | 29.8 µM (inactive) | 24.7 µM (inactive) | 46.1 µM | 23.7 µM (inactive) | 56.5 µM (inactive) |  |  | 97.3 µM (inactive) | > 100 µM (inactive) | 24.9 µM (inactive) | 68.2 µM (inactive) | 
O=C(O)COc1ccccc1C(=O)Nc1ccccc1 | > 100 µM (inactive) | > 100 µM (inactive) | > 100 µM (inactive) | > 100 µM (inactive) | > 100 µM (inactive) | > 100 µM (inactive) | > 100 µM (inactive) | > 100 µM | > 100 µM (inactive) | > 100 µM (inactive) | > 100 µM (inactive) | > 100 µM (inactive) | > 100 µM (inactive) | > 100 µM (inactive) |  | > 100 µM (inactive) | > 100 µM (inactive)
